Measured values published in BindingDB's records for patent US12497405 (Merck Sharp & Dohme, 2025).

Key:
[1] = target: T1, DNA polymerase catalytic subunit (Human cytomegalovirus (strain AD169), UniProt P08546); experiment: CMV and VZV Polymerase Assays
T1 sequence (P08546 whole entry): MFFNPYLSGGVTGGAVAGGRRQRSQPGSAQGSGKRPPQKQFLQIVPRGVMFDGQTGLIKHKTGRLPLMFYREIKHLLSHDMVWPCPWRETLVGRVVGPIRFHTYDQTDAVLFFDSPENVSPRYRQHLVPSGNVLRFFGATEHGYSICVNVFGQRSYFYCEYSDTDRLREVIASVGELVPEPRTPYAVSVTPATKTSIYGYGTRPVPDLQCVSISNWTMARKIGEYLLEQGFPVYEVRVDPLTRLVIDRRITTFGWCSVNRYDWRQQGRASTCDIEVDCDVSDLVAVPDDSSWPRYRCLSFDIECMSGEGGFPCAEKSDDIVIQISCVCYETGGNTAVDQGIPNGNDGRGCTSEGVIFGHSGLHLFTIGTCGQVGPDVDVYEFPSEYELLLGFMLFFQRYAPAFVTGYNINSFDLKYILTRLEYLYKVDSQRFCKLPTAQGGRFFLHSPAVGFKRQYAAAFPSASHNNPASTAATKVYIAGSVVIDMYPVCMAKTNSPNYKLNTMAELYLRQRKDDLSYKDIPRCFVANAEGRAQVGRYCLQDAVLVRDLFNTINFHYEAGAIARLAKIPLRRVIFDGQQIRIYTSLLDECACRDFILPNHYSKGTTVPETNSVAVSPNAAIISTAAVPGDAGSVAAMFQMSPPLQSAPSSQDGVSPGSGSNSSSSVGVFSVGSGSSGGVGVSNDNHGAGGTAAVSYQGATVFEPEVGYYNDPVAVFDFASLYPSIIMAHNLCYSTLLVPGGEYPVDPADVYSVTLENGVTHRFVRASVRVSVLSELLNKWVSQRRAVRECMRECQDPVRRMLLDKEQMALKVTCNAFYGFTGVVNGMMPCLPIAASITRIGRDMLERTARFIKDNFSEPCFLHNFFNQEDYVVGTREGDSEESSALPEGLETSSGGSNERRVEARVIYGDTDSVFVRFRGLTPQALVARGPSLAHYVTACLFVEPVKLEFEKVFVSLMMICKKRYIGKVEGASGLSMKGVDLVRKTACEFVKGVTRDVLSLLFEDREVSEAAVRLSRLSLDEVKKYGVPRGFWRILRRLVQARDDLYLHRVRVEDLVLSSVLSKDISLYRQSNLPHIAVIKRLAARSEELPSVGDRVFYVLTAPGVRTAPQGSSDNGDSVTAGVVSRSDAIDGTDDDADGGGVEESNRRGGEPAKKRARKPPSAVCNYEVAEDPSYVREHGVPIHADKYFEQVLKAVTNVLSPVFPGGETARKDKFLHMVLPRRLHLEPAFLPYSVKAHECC
Method: (§1) Human cytomegalovirus and varicella zoster virus DNA polymerases were expressed via baculovirus vector in SF21 cells and purified. Heterodimeric nucleic acid substrate used in the herpesvirus polymerase reactions were generated by annealing a 59-mer template to a 17-mer digoxigenin-labeled primer. Polymerase (HCMV final concentration of 0.2 nM; VZV final concentration of 0.4 nM) was combined with an inhibitor compound or DMSO in assay buffer (10 mM HEPES, pH 7.5, 25 mM KCl, 25 mM NaCl, 5 mM MgCl2, 5% glycerol, 0.67 mg/ml bovine serum albumin, and 1 mM tris(2-carboxyethyl)phosphine)), and this mixture was pre-incubated for 30 minutes at room temperature in 384-well microtiter plates. The polymerization reaction was initiated by the addition of template/primer substrate (final concentration: 1.6 nM), and dNTPs (final concentration: 24 nM dCTP, 24 nMdGTP, 16 nM dATP, 16 nM dTTP, and 0.8 nM biotin-dUTP). After a 60 minute incubation period at 37° C., the reactions were terminated using quench buffer (25 mM HEPES pH 7.5, 100 mM NaCl, 0.25% Tween-20, 12 mM EDTA, and 1 mg/ml bovine serum albumin). Incorporation of biotinylated UTP was detected with 2.5-5 μg/mL anti-DIG AlphaLISA acceptor beads and 5-10 μg/mL streptavidin AlphaLISA donor beads (PerkinElmer). […]

[2] = target: T2, DNA polymerase catalytic subunit (Varicella-zoster virus (strain Dumas), UniProt P09252); experiment: CMV and VZV Polymerase Assays
T2 sequence (P09252 whole entry): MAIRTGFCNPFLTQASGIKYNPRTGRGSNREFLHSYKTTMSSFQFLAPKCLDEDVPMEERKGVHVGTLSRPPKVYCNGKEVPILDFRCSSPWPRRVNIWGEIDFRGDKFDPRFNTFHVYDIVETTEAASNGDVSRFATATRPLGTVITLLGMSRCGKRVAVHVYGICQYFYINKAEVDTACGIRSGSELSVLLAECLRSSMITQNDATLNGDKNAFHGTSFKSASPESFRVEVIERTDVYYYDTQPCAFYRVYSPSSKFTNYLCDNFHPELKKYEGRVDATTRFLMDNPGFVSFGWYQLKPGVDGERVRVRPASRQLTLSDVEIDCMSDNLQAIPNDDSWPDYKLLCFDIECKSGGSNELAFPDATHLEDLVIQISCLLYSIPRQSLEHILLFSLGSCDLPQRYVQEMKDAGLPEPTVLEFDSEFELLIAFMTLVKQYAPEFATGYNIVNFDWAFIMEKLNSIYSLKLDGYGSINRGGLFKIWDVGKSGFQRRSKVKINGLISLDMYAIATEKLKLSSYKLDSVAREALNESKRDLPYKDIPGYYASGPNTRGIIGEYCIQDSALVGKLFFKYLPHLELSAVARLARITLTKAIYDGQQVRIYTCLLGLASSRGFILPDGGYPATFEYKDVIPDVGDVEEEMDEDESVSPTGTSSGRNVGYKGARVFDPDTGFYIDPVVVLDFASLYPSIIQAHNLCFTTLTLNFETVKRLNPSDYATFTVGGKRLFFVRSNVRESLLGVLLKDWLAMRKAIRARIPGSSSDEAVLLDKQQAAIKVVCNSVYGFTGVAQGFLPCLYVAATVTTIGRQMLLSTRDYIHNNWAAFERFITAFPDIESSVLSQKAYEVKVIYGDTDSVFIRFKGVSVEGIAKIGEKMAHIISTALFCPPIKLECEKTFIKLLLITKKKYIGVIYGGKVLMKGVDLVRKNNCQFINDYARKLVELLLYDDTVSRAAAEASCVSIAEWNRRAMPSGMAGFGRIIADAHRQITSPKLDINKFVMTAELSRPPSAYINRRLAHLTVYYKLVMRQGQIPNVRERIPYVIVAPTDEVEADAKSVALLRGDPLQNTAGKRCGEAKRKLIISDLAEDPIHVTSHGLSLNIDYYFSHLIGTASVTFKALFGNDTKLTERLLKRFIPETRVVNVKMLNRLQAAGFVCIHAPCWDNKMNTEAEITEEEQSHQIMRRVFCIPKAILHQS
Method: as §1

SMILES: O=C1OC[C@@H]2C[C@@H](Oc3cc4c(=O)n(Cc5ccc(Cl)cc5)cnc4nc3-c3cnco3)CCN12 [US12497405, Compound 37]
- IC50 [1]: 1100 pM
- IC50 [2]: 220 pM
